In US9434711B2 (Janssen Pharmaceutica, NV, priority 2007, dated 2016):

Target: canine TRPM8 (Canis lupus familiaris, UniProt Q1A7N1)
Assay: In Vitro Canine TRPM8 Functional Assay (Ca2+ fluorescence, icilin activation)
Type: cell-based
Conditions: for IC50: HEK293 cells stably expressing canine TRPM8, icilin activation, eight-point dose-response, read-out: IC50; for inhibition at 0.2 µM: compound at 0.2 μM, canine TRPM8, icilin activation, read-out: % Inh @ 0.2
Outline: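 Readout is the intracellular Ca2+ fluorescence change, measured by FLIPR or FDSS, in HEK293 cells stably expressing canine TRPM8. Potency (EC50 or IC50) is fitted from eight concentrations averaged over quadruplicate wells.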

Chain of canine TRPM8 (Q1A7N1 1-1104): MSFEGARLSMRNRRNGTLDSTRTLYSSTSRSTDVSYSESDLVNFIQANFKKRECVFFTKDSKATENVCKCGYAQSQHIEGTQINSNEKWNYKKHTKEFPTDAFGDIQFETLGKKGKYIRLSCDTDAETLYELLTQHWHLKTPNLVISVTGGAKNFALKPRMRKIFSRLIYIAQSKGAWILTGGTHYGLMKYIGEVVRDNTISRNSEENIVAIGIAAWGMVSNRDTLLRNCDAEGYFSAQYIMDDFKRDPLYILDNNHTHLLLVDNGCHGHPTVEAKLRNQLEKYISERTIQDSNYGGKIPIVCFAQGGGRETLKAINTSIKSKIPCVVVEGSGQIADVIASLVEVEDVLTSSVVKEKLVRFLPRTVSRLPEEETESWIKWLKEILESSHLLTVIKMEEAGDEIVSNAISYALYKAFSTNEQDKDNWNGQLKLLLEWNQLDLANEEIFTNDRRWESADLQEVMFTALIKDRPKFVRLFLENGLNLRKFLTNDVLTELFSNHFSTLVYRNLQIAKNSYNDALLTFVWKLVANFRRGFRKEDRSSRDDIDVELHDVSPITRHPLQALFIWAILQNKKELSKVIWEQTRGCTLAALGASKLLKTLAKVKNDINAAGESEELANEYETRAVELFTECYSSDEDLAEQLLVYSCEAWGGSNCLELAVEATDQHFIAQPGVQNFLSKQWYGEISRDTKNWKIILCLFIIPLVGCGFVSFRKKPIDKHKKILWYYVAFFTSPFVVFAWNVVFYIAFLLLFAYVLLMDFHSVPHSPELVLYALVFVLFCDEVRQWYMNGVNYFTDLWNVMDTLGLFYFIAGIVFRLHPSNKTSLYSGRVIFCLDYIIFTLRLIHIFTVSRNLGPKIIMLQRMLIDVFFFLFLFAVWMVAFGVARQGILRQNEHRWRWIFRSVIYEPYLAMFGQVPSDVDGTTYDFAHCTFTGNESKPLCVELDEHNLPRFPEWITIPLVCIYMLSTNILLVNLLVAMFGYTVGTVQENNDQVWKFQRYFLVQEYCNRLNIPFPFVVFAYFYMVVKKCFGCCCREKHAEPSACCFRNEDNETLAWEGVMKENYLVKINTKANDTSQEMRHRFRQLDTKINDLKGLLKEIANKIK

| IC50 | inhibition at 0.2 µM | Compound |
| --- | --- | --- |
| 5 nM | 103% | Nc1ccc(S(=O)(=O)N(CCCCC(F)(F)F)c2sc3ccccc3c2Br)cc1 [Compound 668, 4-Amino-N-(3-bromo-benzo[b]thiophen-2-yl)-N-(5,5,5-trifluoro-pentyl)-benzenesulfonamide] |
| 51.2 nM | 96.4% | Cc1c(N(Cc2ccc(F)c(C(F)(F)F)c2)S(=O)(=O)CC(F)(F)F)sc2ccccc12 [Compound 669, N-(4-Fluoro-3-trifluoromethyl-benzyl)-N-(3-methyl-benzo[b]thiophen-2-yl)-2,2,2-trifluoro-ethanesulfonamide] |
| 39 nM | 99.1% | Cc1c(N(CCC2CC2)S(=O)(=O)CC(F)(F)F)sc2ccccc12 [Compound 670, N-(2-Cyclopropyl-ethyl)-N-(3-methyl-benzo[b]thiophen-2-yl)-2,2,2-trifluoro-ethanesulfonamide] |
| 34.5 nM | 100% | Cc1c(N(CCC(F)(F)F)S(=O)(=O)CC(F)(F)F)sc2ccccc12 [Compound 671, N-(3-Methyl-benzo[b]thiophen-2-yl)-N-(3,3,3-trifluoro-propyl)-2,2,2-trifluoro-ethanesulfonamide] |
| 74.9 nM | 75.3% | Cc1c(N(CCCC(F)(F)F)S(=O)(=O)CC(F)(F)F)sc2ccccc12 [Compound 672, N-(3-Methyl-benzo[b]thiophen-2-yl)-N-(4,4,4-trifluoro-butyl)-2,2,2-trifluoro-ethanesulfonamide] |
|  | 94.4% | Cc1c(N(CCCCC(F)(F)F)S(=O)(=O)CC(F)(F)F)sc2ccccc12 [Compound 673, N-(3-Methyl-benzo[b]thiophen-2-yl)-N-(5,5,5-trifluoro-pentyl)-2,2,2-trifluoro-ethanesulfonamide] |
| 77.6 nM | 85.4% | COC(=O)c1ccc(S(=O)(=O)N(Cc2ccc(F)c(C(F)(F)F)c2)c2sc3ccccc3c2C2CC2)cc1 [Compound 674, N-(3-Cyclopropyl-benzo[b]thiophen-2-yl)-N-(4-fluoro-3-trifluoromethyl-benzyl)-4-carbomethoxy-benzenesulfonamide] |
| 2.4 nM | 100% | O=C(O)c1ccc(S(=O)(=O)N(Cc2ccc(F)c(C(F)(F)F)c2)c2sc3ccccc3c2C2CC2)cc1 [Compound 675, N-(3-Cyclopropyl-benzo[b]thiophen-2-yl)-N-(4-fluoro-3-trifluoromethyl-benzyl)-4-carboxy-benzenesulfonamide] |
| 25.9 nM | 102% | CS(=O)(=O)Nc1ccc(S(=O)(=O)N(CCC(F)(F)F)c2sc3ccccc3c2Cl)cc1 [Compound 676, N-(3-Chloro-benzo[b]thiophen-2-yl)-4-methanesulfonylamino-N-(3,3,3-trifluoro-propyl)-benzenesulfonamide] |
| 24.6 nM | 101% | CS(=O)(=O)Nc1ccc(S(=O)(=O)N(CCC(F)(F)F)c2sc3ccccc3c2Br)cc1 [Compound 677, N-(3-Bromo-benzo[b]thiophen-2-yl)-N-(3,3,3-trifluoro-propyl)-4-methanesulfonylamino-benzenesulfonamide] |
|  | 61% | CS(=O)(=O)Nc1ccc(S(=O)(=O)N(CCCCC(F)(F)F)c2cc3ccccc3s2)cc1 [Compound 678, N-(Benzo[b]thiophen-2-yl)-4-methanesulfonylamino-N-(5,5,5-trifluoro-pentyl)-benzenesulfonamide] |
| 57.9 nM | 100% | CS(=O)(=O)Nc1ccc(S(=O)(=O)N(CCCCC(F)(F)F)c2sc3ccccc3c2Cl)cc1 [Compound 679, N-(3-Chloro-benzo[b]thiophen-2-yl)-4-methanesulfonylamino-N-(5,5,5-trifluoro-pentyl)-benzenesulfonamide] |
| 56.1 nM | 96.2% | CS(=O)(=O)Nc1ccc(S(=O)(=O)N(CCCCC(F)(F)F)c2sc3ccccc3c2Br)cc1 [Compound 680, N-(3-Bromo-benzo[b]thiophen-2-yl)-4-methanesulfonylamino-N-(5,5,5-trifluoro-pentyl)-benzenesulfonamide] |
| 67.4 nM | 93.3% | CS(=O)(=O)Nc1c(Cl)cc(S(=O)(=O)N(CCC(F)(F)F)c2sc3ccccc3c2Cl)cc1Cl [Compound 681, 3,5-Dichloro-N-(3-chloro-benzo[b]thiophen-2-yl)-4-methanesulfonylamino-N-(3,3,3-trifluoro-propyl)-benzenesulfonamide] |
| 31.7 nM | 101% | CS(=O)(=O)Nc1c(Cl)cc(S(=O)(=O)N(CCCCC(F)(F)F)c2sc3ccccc3c2Cl)cc1Cl [Compound 682, 3,5-Dichloro-N-(3-chloro-benzo[b]thiophen-2-yl)-4-methanesulfonylamino-N-(5,5,5-trifluoro-pentyl)-benzenesulfonamide] |
| 25.8 nM | 101% | CS(=O)(=O)Nc1ccc(S(=O)(=O)N(CCC(F)(F)F)c2sc3ccccc3c2Br)cc1Br [Compound 683, 3-Bromo-N-(3-bromo-benzo[b]thiophen-2-yl)-4-methanesulfonylamino-N-(3,3,3-trifluoro-propyl)-benzenesulfonamide] |

| IC50 | inhibition at 0.2 µM | Compound |
| --- | --- | --- |
| 145 nM | 73.1% | O=c1[nH]c(-c2ccc(S(=O)(=O)N(CCC(F)(F)F)c3cc4ccccc4s3)cc2)ns1 [Compound 684, N-(Benzo[b]thiophen-2-yl)-N-(3,3,3-trifluoro-propyl)-4-(5-oxo-4,5-dihydro-[1,2,4]thiadiazol-3-yl)-benzenesulfonamide] |
| 11.9 nM | 102% | O=C(O)c1ccc(S(=O)(=O)N(CCCCC(F)(F)F)c2cc3ccccc3s2)c(F)c1 [Compound 685, N-(Benzo[b]thiophen-2-yl)-N-(5,5,5-trifluoro-pentyl)-2-fluoro-4-carboxy-benzenesulfonamide] |
| 4.7 nM | 105% | O=C(O)c1ccc(S(=O)(=O)N(Cc2ccc(F)c(C(F)(F)F)c2)c2cc3ccccc3s2)c(F)c1 [Compound 686, N-(Benzo[b]thiophen-2-yl)-N-(4-fluoro-3-trifluoromethyl-benzyl)-2-fluoro-4-carboxy-benzenesulfonamide] |
| 56.9 nM | 74.5% | O=c1[nH]c(-c2ccc(S(=O)(=O)N(CCCCC(F)(F)F)c3cc4ccccc4s3)cc2)ns1 [Compound 687, N-(Benzo[b]thiophen-2-yl)-N-(5,5,5-trifluoro-pentyl)-4-(5-oxo-4,5-dihydro-[1,2,4]thiadiazol-3-yl)-benzenesulfonamide] |
| 60.2 nM | 99% | CNc1ccc(S(=O)(=O)N(CCC2CC2)c2cc3ccccc3s2)cc1 [Compound 688, N-(Benzo[b]thiophen-2-yl)-N-(2-cyclopropyl-ethyl)-4-methylamino-benzenesulfonamide] |
| 52.8 nM | 86% | CN(C)c1ccc(S(=O)(=O)N(CCC2CC2)c2cc3ccccc3s2)cc1 [Compound 689, N-(Benzo[b]thiophen-2-yl)-N-(2-cyclopropyl-ethyl)-4-dimethylamino-benzenesulfonamide] |
| 16.1 nM | 101% | CNc1ccc(S(=O)(=O)N(CCC2CC2)c2sc3ccccc3c2Cl)cc1 [Compound 690, N-(3-Chloro-benzo[b]thiophen-2-yl)-N-(2-cyclopropyl-ethyl)-4-methylamino-benzenesulfonamide] |
| 16 nM | 102% | CNc1ccc(S(=O)(=O)N(CCC2CC2)c2sc3ccccc3c2Cl)cc1Cl [Compound 691, 3-Chloro-N-(3-chloro-benzo[b]thiophen-2-yl)-N-(2-cyclopropyl-ethyl)-4-methylamino-benzenesulfonamide] |
| 7.2 nM | 101% | CNc1ccc(S(=O)(=O)N(CCC2CC2)c2sc3ccccc3c2Br)cc1Br [Compound 692, 3-Bromo-N-(3-bromo-benzo[b]thiophen-2-yl)-N-(2-cyclopropyl-ethyl)-4-methylamino-benzenesulfonamide] |
| 25.2 nM | 103% | CNc1ccc(S(=O)(=O)N(CCC2CC2)c2sc3ccccc3c2Br)cc1 [Compound 693, N-(3-Bromo-benzo[b]thiophen-2-yl)-N-(2-cyclopropyl-ethyl)-4-methylamino-benzenesulfonamide] |
| 17 nM | 101% | O=C(Nc1ccc(S(=O)(=O)N(Cc2ccc(F)c(C(F)(F)F)c2)c2sc3ccccc3c2Br)cc1)C(F)(F)F [Compound 695, N-(3-Bromo-benzo[b]thiophen-2-yl)-N-(4-fluoro-3-trifluoromethyl-benzyl)-4-trifluoroacetamido-benzenesulfonamide] |
| 23 nM | 97% | COC(=O)c1ccc(S(=O)(=O)N(Cc2ccc(F)c(C(F)(F)F)c2)c2sc3ccccc3c2C2CCC2)cc1 [Compound 696, N-(3-Cyclobutyl-benzo[b]thiophen-2-yl)-N-(4-fluoro-3-trifluoromethyl-benzyl)-4-carbomethoxy-benzenesulfonamide] |
| 64 nM | 92% | O=S(=O)(CC(F)(F)F)N(Cc1ccc(F)c(C(F)(F)F)c1)c1cc2ccccc2s1 [Compound 697, N-(Benzo[b]thiophen-2-yl)-N-(4-fluoro-3-trifluoromethyl-benzyl)-2,2,2-trifluoro-ethanesulfonamide] |
| 2 nM | 102% | O=C(O)c1ccc(S(=O)(=O)N(Cc2ccc(F)c(C(F)(F)F)c2)c2sc3ccccc3c2C2CCC2)cc1 [Compound 698, N-(3-Cyclobutyl-benzo[b]thiophen-2-yl)-N-(4-fluoro-3-trifluoromethyl-benzyl)-4-carboxy-benzenesulfonamide] |
| 6 nM | 103% | Cc1c(N(Cc2ccc(F)c(C(F)(F)F)c2)S(=O)(=O)CCCO)sc2ccccc12 [Compound 699, N-(4-Fluoro-3-trifluoromethyl-benzyl)-N-(3-methyl-benzo[b]thiophen-2-yl)-3-hydroxy-propanesulfonamide] |
